Measurements as given in ChEMBL document CHEMBL3739371, “Small molecules enhance functional O-mannosylation of Alpha-dystroglycan” (Bioorg Med Chem, 2015).
The source made the active and inactive calls. The calls are words filed in the database; no cut-off is given here.

Columns and labels:
[1] = molecular target: T1, Dystroglycan 1 (Mus musculus) (UniProt Q62165); assay: Increase of functional O-mannosylation of alpha-dystroglycan in mouse C2C12 cells after 48 hrs by immunofluorescence assay; type: cell-based
T1 sequence (whole entry): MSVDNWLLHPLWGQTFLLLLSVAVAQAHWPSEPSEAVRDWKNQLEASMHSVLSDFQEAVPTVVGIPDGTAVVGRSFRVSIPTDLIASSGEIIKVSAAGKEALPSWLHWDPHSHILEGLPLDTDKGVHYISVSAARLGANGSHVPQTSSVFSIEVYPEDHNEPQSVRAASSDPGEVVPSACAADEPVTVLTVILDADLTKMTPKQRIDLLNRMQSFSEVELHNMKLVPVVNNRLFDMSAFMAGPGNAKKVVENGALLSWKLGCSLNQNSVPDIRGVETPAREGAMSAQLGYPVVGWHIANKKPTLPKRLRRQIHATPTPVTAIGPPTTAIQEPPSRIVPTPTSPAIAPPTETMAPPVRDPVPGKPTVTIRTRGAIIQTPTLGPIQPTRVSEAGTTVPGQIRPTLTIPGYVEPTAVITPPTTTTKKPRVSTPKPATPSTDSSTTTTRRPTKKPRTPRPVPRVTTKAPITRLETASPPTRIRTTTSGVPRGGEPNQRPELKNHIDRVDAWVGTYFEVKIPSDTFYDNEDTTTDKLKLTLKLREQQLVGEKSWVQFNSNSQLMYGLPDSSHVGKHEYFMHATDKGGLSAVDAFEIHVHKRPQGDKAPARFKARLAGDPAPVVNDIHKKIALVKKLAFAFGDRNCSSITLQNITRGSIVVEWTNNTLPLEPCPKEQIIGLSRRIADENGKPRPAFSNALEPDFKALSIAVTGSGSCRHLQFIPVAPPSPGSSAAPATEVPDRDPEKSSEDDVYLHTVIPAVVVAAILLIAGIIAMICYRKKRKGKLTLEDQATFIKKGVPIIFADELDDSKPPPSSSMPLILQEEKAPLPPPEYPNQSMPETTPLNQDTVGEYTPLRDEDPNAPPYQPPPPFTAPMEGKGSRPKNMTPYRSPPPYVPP

[2] = molecular target: T2, Dystroglycan 1 (Homo sapiens) (UniProt Q14118); assay: Increase of functional O-mannosylation of alpha-dystroglycan in human myoblasts after 48 hrs by immunofluorescence assay
T2 sequence (whole entry): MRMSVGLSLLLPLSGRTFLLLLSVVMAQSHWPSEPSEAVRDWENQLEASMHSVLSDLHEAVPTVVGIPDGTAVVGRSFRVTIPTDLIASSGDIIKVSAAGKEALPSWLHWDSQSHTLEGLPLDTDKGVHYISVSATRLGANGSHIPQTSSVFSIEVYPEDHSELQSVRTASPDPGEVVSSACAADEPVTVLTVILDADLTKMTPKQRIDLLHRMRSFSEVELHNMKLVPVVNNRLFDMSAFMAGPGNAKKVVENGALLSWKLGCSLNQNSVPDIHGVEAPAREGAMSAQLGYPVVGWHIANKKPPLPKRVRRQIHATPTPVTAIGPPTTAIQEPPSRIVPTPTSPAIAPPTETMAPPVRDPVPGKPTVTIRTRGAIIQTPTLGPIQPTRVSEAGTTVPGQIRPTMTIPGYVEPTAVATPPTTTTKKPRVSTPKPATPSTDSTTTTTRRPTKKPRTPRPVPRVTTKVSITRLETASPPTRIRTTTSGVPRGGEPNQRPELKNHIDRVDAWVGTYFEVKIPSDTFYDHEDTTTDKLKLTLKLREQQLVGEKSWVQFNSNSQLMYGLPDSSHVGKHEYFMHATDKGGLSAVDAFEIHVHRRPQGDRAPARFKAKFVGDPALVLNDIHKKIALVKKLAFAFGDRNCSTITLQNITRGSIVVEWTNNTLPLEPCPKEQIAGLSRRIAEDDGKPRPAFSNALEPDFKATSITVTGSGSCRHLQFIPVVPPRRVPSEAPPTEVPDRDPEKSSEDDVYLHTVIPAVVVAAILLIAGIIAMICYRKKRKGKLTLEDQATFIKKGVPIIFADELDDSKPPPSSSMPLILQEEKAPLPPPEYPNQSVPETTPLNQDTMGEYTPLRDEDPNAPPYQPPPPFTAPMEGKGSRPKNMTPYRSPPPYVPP

[3] = molecular target: T1, Dystroglycan 1 (Mus musculus); assay: Increase of functional O-mannosylation of alpha-dystroglycan in mouse C2C12 cells expressing LARGE after 48 hrs by alpha-screen assay; type: cell-based
[4] = molecular target: T2, Dystroglycan 1 (Homo sapiens); assay: Increase of functional O-mannosylation of alpha-dystroglycan in human myotubes expressing myogenin after 48 hrs by alpha-screen assay
[5] = molecular target: T3, Dystroglycan (Cricetulus griseus) (UniProt G3H8F4); assay: Increase of functional O-mannosylation of alpha-dystroglycan in Chinese hamster pro5 cells expressing LARGE after 48 hrs by alpha-screen assay; type: cell-based
T3 sequence (whole entry): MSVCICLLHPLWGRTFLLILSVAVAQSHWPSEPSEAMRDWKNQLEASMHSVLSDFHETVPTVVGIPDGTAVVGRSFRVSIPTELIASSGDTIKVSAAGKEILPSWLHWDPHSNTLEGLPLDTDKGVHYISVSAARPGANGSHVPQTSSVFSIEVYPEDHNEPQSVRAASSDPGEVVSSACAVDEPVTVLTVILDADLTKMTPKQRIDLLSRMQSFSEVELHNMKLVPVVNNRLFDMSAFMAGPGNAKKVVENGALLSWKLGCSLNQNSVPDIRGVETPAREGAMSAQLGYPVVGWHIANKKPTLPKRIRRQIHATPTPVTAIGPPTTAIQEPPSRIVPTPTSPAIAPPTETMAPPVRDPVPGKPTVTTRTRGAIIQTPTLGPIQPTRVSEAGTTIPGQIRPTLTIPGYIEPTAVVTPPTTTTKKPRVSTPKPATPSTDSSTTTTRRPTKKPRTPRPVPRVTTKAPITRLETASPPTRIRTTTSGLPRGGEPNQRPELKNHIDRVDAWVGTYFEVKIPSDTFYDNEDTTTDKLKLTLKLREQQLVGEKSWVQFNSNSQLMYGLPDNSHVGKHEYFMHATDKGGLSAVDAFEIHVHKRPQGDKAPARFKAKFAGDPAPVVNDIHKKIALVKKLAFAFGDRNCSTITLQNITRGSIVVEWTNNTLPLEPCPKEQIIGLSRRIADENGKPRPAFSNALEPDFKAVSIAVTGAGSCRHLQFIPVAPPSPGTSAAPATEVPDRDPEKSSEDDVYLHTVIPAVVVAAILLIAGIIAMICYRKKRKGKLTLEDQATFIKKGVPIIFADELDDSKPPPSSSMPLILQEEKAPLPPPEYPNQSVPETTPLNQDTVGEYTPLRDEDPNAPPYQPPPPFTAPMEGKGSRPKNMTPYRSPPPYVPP

[6] = molecular target: T2, Dystroglycan 1 (Homo sapiens); assay: Increase of functional O-mannosylation of alpha-dystroglycan in human myotubes after 48 hrs by immunofluorescence assay
[7] = molecular target: T2, Dystroglycan 1 (Homo sapiens); assay: Increase of functional O-mannosylation of alpha-dystroglycan in FKRP-deficient human myotubes after 24 hrs by fluorescence assay
[8] = molecular target: T3, Dystroglycan (Cricetulus griseus); assay: Increase of functional O-mannosylation of alpha-dystroglycan in Chinese hamster B421 cells after 24 hrs by fluorescence assay relative to control; type: cell-based
[9] = molecular target: T3, Dystroglycan (Cricetulus griseus); assay: Increase of functional O-mannosylation of alpha-dystroglycan in Chinese hamster Lec15.2 cells after 24 hrs by fluorescence assay
[10] = molecular target: T3, Dystroglycan (Cricetulus griseus); assay: Increase of functional O-mannosylation of alpha-dystroglycan in Chinese hamster pgsl-208 cells after 24 hrs by fluorescence assay
[11] = molecular target: T1, Dystroglycan 1 (Mus musculus); assay: Increase of functional O-mannosylation of alpha-dystroglycan in mouse C2C12 cells expressing myogenin after 48 hrs by immunofluorescence assay; type: cell-based

CCC(c1nnnn1Cc1cccs1)N1CCN(c2nc3cc(N)cc(F)c3s2)CC1 (stereo unspecified)
Activity [1]: Active | Activity [2]: inactive | fold change (FC) [3]: 8 | Activity [4]: Active | EC1.5 [5]: 1.2 µM | Activity [6]: inactive | Activity [7]: Active | fold change (FC) [8]: < 6 | Activity [9]: inactive | Activity [10]: inactive | Activity [11]: Active
